Some test systems named below: CCRF-CEM leukemia; HCT-116 colon; HT29 colon; IGROV1 ovarian; MDA-MB-231 breast; MDA-MB-435; OVCAR-3 ovarian; OVCAR-4 ovarian; SF-268 CNS; SNB-19 CNS.
Assay in all cases: growth of human tumour cells (NCI), 48 h

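Growth conditions: 96-well plates. Treatment: test compound, 48 hours, 5 concentrations. Analysis: linear interpolation between bracketing concentrations; unreached endpoints set to highest concentration. GI50 marks 50% less growth. TGI: total growth inhibition.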 Some results are limits rather than exact numbers.

On to `COc1ccc2cc(C(=O)/C=C/c3cc(OC)c(OC)c(OC)c3)ccc2c1`, for which the GI50 in the assay with CCRF-CEM leukemia was > 50 µM; in the assay with HCT-116 colon it was 1.62 µM; in the assay with HT29 colon, 2.72 µM; in the assay on IGROV1 ovarian, 5.49 µM; in the assay on MDA-MB-231 breast it was 1.02 µM; in the assay on MDA-MB-435 it was 2.67 µM. In addition, the GI50 in the assay with OVCAR-3 ovarian is 5.86 µM; with OVCAR-4 ovarian it was 2.82 µM; in the assay with SF-268 CNS, 5.11 µM; in the assay on SNB-19 CNS, 12.9 µM. Also, the TGI is > 50 µM in the assay on CCRF-CEM leukemia; 8.27 µM in the assay with HCT-116 colon; 19.7 µM with HT29 colon; 18.5 µM with IGROV1 ovarian; 15.8 µM with MDA-MB-231 breast; 40.5 µM in the assay with MDA-MB-435. For the same compound, the TGI with OVCAR-3 ovarian was > 50 µM; in the assay with OVCAR-4 ovarian, > 50 µM; in the assay with SF-268 CNS it was 13.7 µM; with SNB-19 CNS, 26.3 µM.
Consider `COc1ccc(-c2nc3sc(C)cn3c2/C=C/C(=O)c2cc(OC)c(OC)c(OC)c2)cc1`, for which the GI50 in the assay with CCRF-CEM leukemia was 3.06 µM; in the assay on HCT-116 colon it was 3.8 µM; in the assay with HT29 colon, 3.95 µM; with IGROV1 ovarian, 1.65 µM; in the assay on MDA-MB-231 breast, 3.78 µM; in the assay with MDA-MB-435, 2.61 µM. In addition, the GI50 with OVCAR-3 ovarian is 2.34 µM; with OVCAR-4 ovarian, 3.15 µM; in the assay on SF-268 CNS, 3.53 µM; in the assay with SNB-19 CNS it was 4.55 µM. Also, the TGI in the assay on CCRF-CEM leukemia was > 100 µM; in the assay on HCT-116 colon, > 100 µM; in the assay on HT29 colon, > 100 µM; with IGROV1 ovarian, 4.33 µM; in the assay on MDA-MB-231 breast it was > 100 µM; in the assay on MDA-MB-435, 7.49 µM. In addition, the TGI with OVCAR-3 ovarian was 5.83 µM; with OVCAR-4 ovarian, > 100 µM; with SF-268 CNS it was > 100 µM; in the assay with SNB-19 CNS it was > 100 µM.
On to `O=C1NCc2ccc3c(-c4cccc(Cl)c4)c[nH]c3c21`, for which the GI50 in the assay with CCRF-CEM leukemia was 0.192 µM; with HCT-116 colon it was 0.217 µM; in the assay on HT29 colon, 0.18 µM; in the assay on IGROV1 ovarian, 0.316 µM; in the assay on MDA-MB-231 breast, 0.838 µM; in the assay with MDA-MB-435, 0.0604 µM. Besides, the GI50 in the assay on OVCAR-3 ovarian was 0.18 µM; with OVCAR-4 ovarian, 1.95 µM; in the assay on SF-268 CNS it was 0.5 µM; with SNB-19 CNS it was 0.29 µM. Besides, the TGI was > 50 µM in the assay on CCRF-CEM leukemia; 9.07 µM in the assay on HCT-116 colon; > 50 µM in the assay on HT29 colon; > 50 µM with IGROV1 ovarian; > 25.7 µM with MDA-MB-231 breast; 0.239 µM with MDA-MB-435. Moreover, the TGI with OVCAR-3 ovarian, in the assay with OVCAR-4 ovarian, with SF-268 CNS and in the assay on SNB-19 CNS was > 50 µM in each case.
Consider `CS(=O)(=O)CCNCc1nc(-c2ccc3ncnc(Nc4ccc(F)c(Cl)c4)c3c2)cs1`, for which the GI50 was 15.4 µM in the assay on CCRF-CEM leukemia; > 23.9 µM in the assay on HCT-116 colon; 16.5 µM in the assay with HT29 colon; 7.39 µM in the assay on IGROV1 ovarian; 23.6 µM with MDA-MB-231 breast; 18 µM with MDA-MB-435. The GI50 in the assay on OVCAR-3 ovarian is 11.1 µM; with OVCAR-4 ovarian, 14.7 µM; in the assay on SF-268 CNS, > 17.9 µM; in the assay on SNB-19 CNS it was > 25 µM. In addition, the TGI in the assay on CCRF-CEM leukemia, with HCT-116 colon, in the assay with HT29 colon, with IGROV1 ovarian, in the assay on MDA-MB-231 breast and with MDA-MB-435 was > 25 µM each time. The TGI with OVCAR-3 ovarian, in the assay with OVCAR-4 ovarian, with SF-268 CNS and in the assay on SNB-19 CNS was > 25 µM throughout.
On to `CNC(=O)c1cc(OC2CCC(NC(=O)Nc3ccc(Cl)c(C(F)(F)F)c3)CC2)ccn1` (stereo not given), for which the GI50 is 4.41 µM in the assay on CCRF-CEM leukemia; 4.35 µM in the assay on HCT-116 colon; 4.25 µM in the assay with HT29 colon; 13.4 µM in the assay with IGROV1 ovarian; 3.23 µM in the assay with MDA-MB-231 breast; 4.16 µM in the assay on MDA-MB-435. Also, the GI50 in the assay with OVCAR-3 ovarian was 10.7 µM; in the assay on OVCAR-4 ovarian, 4.53 µM; in the assay with SF-268 CNS, 13.7 µM; in the assay on SNB-19 CNS, 7.91 µM. The TGI in the assay on CCRF-CEM leukemia was > 100 µM; in the assay with HCT-116 colon it was 16.6 µM; in the assay on HT29 colon it was 16.2 µM; with IGROV1 ovarian, 39.6 µM; in the assay on MDA-MB-231 breast, 15.9 µM; in the assay on MDA-MB-435, 24.8 µM. For the same compound, the TGI in the assay with OVCAR-3 ovarian is 32 µM; in the assay with OVCAR-4 ovarian, 49.6 µM; in the assay on SF-268 CNS, 52 µM; in the assay with SNB-19 CNS it was 32.2 µM.
Regarding `COc1ccc(-c2nn3ncccc3c2-c2ccnc(Nc3ccc(Cl)c(C(F)(F)F)c3)n2)cc1`, the GI50 is 8.37 µM in the assay on CCRF-CEM leukemia; 8.01 µM in the assay with HCT-116 colon; 9.88 µM with HT29 colon; 9.48 µM in the assay with IGROV1 ovarian; 8.56 µM with MDA-MB-231 breast; 9.69 µM in the assay on MDA-MB-435. Moreover, the GI50 is 10.5 µM in the assay with OVCAR-3 ovarian, 8.66 µM in the assay with OVCAR-4 ovarian, 11.6 µM in the assay on SF-268 CNS and 16 µM in the assay with SNB-19 CNS. For the same compound, the TGI with CCRF-CEM leukemia, in the assay on HCT-116 colon, in the assay on HT29 colon, with IGROV1 ovarian, in the assay on MDA-MB-231 breast and in the assay on MDA-MB-435 was > 25 µM throughout. The TGI with OVCAR-3 ovarian, in the assay on OVCAR-4 ovarian, in the assay with SF-268 CNS and in the assay on SNB-19 CNS was > 25 µM throughout.
As for `O=P(O)(CCP(=O)(O)c1ccccc1)c1ccccc1`, the TGI in the assay with CCRF-CEM leukemia, with HCT-116 colon, in the assay with HT29 colon, in the assay with IGROV1 ovarian, in the assay on MDA-MB-231 breast and with MDA-MB-435 was > 100 µM each time. For the same compound, the TGI in the assay with OVCAR-3 ovarian, in the assay on OVCAR-4 ovarian, in the assay with SF-268 CNS and in the assay with SNB-19 CNS was > 100 µM each time.

For the origin of these results see PubChem BioAssay (NCI).
